Data as given in PubChem BioAssay (NCI).
“And” between values parts separate entries of the source, which are not always exact repeats. Identical values can stand only once.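 Step 1: Grow cells in 96-well plates. Step 2: Expose to compound for 48 hours at 5 concentrations. Step 3: Interpolate endpoints linearly; if unreached, use highest concentration. Abbreviation: GI50, concentration required for 50% inhibition of growth. TGI denotes the concentration required for complete inhibition of growth.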 *1 amine or outer side, *2 acyl side, *3 side chain or, on linkers, in order; H or OH if unused. Where a SMILES comes first, the peptide text is derived from it. Bridges are numbered along the chain shown (N, C = ends). Roman numbers before positions name the chains, in order. [ ]: non-standard residue; d: D form. Actinocin(1to9) = Cc1c2oc3c(C)ccc(C(=O)[*:2])c3nc-2c(C(=O)[*:1])c(N)c1=O; NMeV = CN[CH](C(=O)O)C(C)C; Sar = CNCC(=O)O

Columns and labels:
Test in all cases: NCI anticancer screen, dose series, 48 h
[1] = test system: SR leukemia
[2] = test system: MALME-3M melanoma
[3] = test system: SK-MEL-28 melanoma
[4] = test system: RXF 393 renal
[5] = test system: 786-0 renal
[6] = test system: NCI-H522 lung
[7] = test system: SNB-75 CNS
[8] = test system: NCI-H460 lung
[9] = test system: PC-3 prostate
[10] = test system: SN12C renal
[11] = test system: SF-268 CNS
[12] = test system: SNB-19 CNS
[13] = test system: HS 578T breast
[14] = test system: CCRF-CEM leukemia
[15] = test system: OVCAR-4 ovarian
[16] = test system: HOP-92 NSCLC

SMILES	TGI [1]	TGI [2]	TGI [3]	TGI [4]	TGI [5]	TGI [6]	TGI [7]	TGI [8]	TGI [9]	TGI [10]	TGI [11]	TGI [12]	TGI [13]	TGI [14]	TGI [15]	TGI [16]	GI50 [7]	GI50 [11]	GI50 [15]
CC(/C=C/c1ccccc1)=N\NC(=S)N/N=C(C)/C=C/c1ccccc1	> 100 µM	> 100 µM	> 100 µM	40.7 µM	29.5 µM	69 µM	48.7 µM	25.6 µM	> 100 µM	> 100 µM	21.7 µM	74.7 µM	> 100 µM	> 100 µM	28.5 µM				
Cc1c(CN2CCOCC2)c(CN2CCOCC2)c(C)n1-c1ccc(Cl)cn1	> 100 µM	> 100 µM	> 100 µM	> 100 µM	> 100 µM	> 100 µM	> 100 µM	> 100 µM	> 100 µM	> 100 µM	> 100 µM	> 100 µM	> 100 µM	> 100 µM	> 100 µM				
COC1=CC(=O)C2=C(C1=O)[C@H]1CC[C@]3(C)C(=O)CC[C@H]3[C@@H]1CC2	> 100 µM		> 100 µM	67.8 µM	53.2 µM	59.8 µM	> 100 µM	> 100 µM	85.2 µM	44.5 µM	46.3 µM	> 100 µM	70.5 µM	26.9 µM	29.5 µM	35.8 µM			
COc1ccc(CC2NC(=O)C(NC(=O)c3c4nc5c(C(=O)NC6C(=O)NC(Cc7ccc(OC)cc7)C(=O)N7CCCC7C(=O)N(C)CC(=O)N(C)C(C(C)C)C(=O)OC6C)ccc(C)c5oc-4c(C)c(=O)c3N)C(C)OC(=O)C(C(C)C)N(C)C(=O)CN(C)C(=O)C3CCCN3C2=O)cc1 (stereo not drawn) (I: TY(Me)P[Sar][NMeV] / II: TY(Me)P[Sar][NMeV]; ester I:1-I:C, II:1-II:C; linker I:N-II:N via Actinocin(1to9); configuration not given here)	< 0.001 µM	0.0374 µM		0.0203 µM	0.0253 µM	0.0234 µM and 0.0235 µM	0.0339 µM and 0.324 µM		0.355 µM and 0.212 µM		0.118 µM and 0.526 µM	3.43 µM and 0.539 µM	0.265 µM	0.0418 µM	0.49 µM and 0.224 µM		55.2 nM	< 1 nM	13.8 nM
CC1CCC2C(C)C(OC(=O)CCC(=O)O)OC3OC4(C)CCC1C32OO4 (stereo not drawn)	3.37 µM		> 100 µM		> 100 µM		> 100 µM	33.4 µM	> 100 µM	> 100 µM	> 100 µM	> 100 µM	> 100 µM	36 µM	27.7 µM	31 µM			
O=S(=O)(N=[Se](=O)(c1ccccc1)c1ccccc1)c1ccccc1	> 100 µM		> 100 µM		> 100 µM	> 100 µM	> 100 µM	> 100 µM	> 100 µM	> 100 µM	> 100 µM	> 100 µM	> 100 µM	> 100 µM	> 100 µM	> 100 µM			
COC(=O)C1=C(N)C2=C(N)Oc3ccccc3C2CC1=C(C#N)C#N (stereo not drawn)	> 100 µM	58.1 µM		> 100 µM	> 100 µM	40.7 µM	68.6 µM		> 100 µM	92.6 µM	89.4 µM	70.4 µM	97.9 µM	> 100 µM	76.1 µM				
CCc1n[nH]c(=O)n1-n1c(C)ccc1C	> 100 µM	> 100 µM	> 100 µM	> 100 µM	> 100 µM	> 100 µM	> 100 µM	> 100 µM	> 100 µM	> 100 µM	> 100 µM	> 100 µM	> 100 µM	> 100 µM	> 100 µM				
O=C(O[C@H](/C=C/c1ccccc1)P1(=O)N(Cc2ccccc2)[C@H]2CCCC[C@@H]2N1Cc1ccccc1)c1ccccc1	> 100 µM	25.6 µM	> 100 µM		> 100 µM	> 100 µM		> 100 µM	> 100 µM	14.5 µM	> 100 µM	> 100 µM	> 100 µM	> 100 µM	6.19 µM	5.86 µM			
COC1(OC)CCCCCCCCC(OC)(OC)CCCCCCCC1	> 100 µM	> 100 µM	> 100 µM	> 100 µM	> 100 µM	> 100 µM	> 100 µM	> 100 µM	> 100 µM	> 100 µM	> 100 µM	> 100 µM	> 100 µM			> 100 µM			
CCc1cccc(C(C)C)c1NC(=O)C(=O)Nn1c(=S)[nH]c2ccccc2c1=O	> 100 µM	> 100 µM	> 100 µM	> 100 µM	> 100 µM	> 100 µM	> 100 µM	> 100 µM	> 100 µM	> 100 µM	> 100 µM		> 100 µM	> 100 µM	> 100 µM	> 100 µM			
COC(=O)c1ccccc1/C=C1\Cc2ccc3c(c2C1=O)CCC3	> 100 µM	> 100 µM	> 100 µM	> 100 µM	> 100 µM	> 100 µM	> 100 µM	> 100 µM	> 100 µM	> 100 µM	> 100 µM		> 100 µM	> 100 µM	> 100 µM	> 100 µM			
O=c1c2c3c(sc2nc2n1sc1nc4sc5c(c4c(=O)n12)CCCC5)CCCC3	> 84.9 µM		> 100 µM	38.5 µM	31 µM	31.1 µM	> 32.8 µM	> 100 µM	> 100 µM	> 100 µM	> 100 µM	> 100 µM	> 100 µM	60.7 µM	37.2 µM	> 91.8 µM			
O=[N+]([O-])c1ccccc1S(=O)(=O)c1cccc2c1NCCC2	> 100 µM	> 100 µM	> 100 µM	> 100 µM	> 100 µM		> 100 µM	> 100 µM	> 100 µM	> 100 µM	> 100 µM	> 100 µM	> 100 µM	> 100 µM	> 100 µM	> 100 µM			
